The results in this text go back to PubChem BioAssay AID328 (DTP/NCI, 2004).

“And” between values parts separate entries of the source, which are not always exact repeats. Equal entries are not always repeated. Toxic doses and inconclusive results are not listed.

For the test, the system named is BDF1 mice, P388 leukemia ip, median survival T/C. The test is described as follows: NCI In Vivo Anticancer Drug Screen. Data for tumor model P388 Leukemia (intraperitoneal) in B6D2F1 (BDF1) mice. The note with it: endpoint: median survival time, higher = longer survival. The procedure, abridged:
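Survival ratio, drug arm over vehicle arm, in mice with a transplanted tumour.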

Where [1] appears, read: dose: 25.0 mg/kg/injection, schedule: Q01DX009 (ip), vehicle: saline with Tween-80.
Where [2] appears, read: dose: 50.0 mg/kg/injection, schedule: Q01DX009 (ip), vehicle: saline with Tween-80.
[3] abbreviates: dose: 100.0 mg/kg/injection, schedule: Q01DX009 (ip), vehicle: saline with Tween-80.
Setting [4] is: dose: 200.0 mg/kg/injection, schedule: Q01DX009 (ip), vehicle: saline with Tween-80.
Setting [5] is: dose: 400.0 mg/kg/injection, schedule: Q01DX009 (ip), vehicle: saline with Tween-80.
The mark [6] stands for this setting: dose: 50.0 mg/kg/injection, schedule: Q04DX003 (ip), vehicle: saline with Tween-80.
Where [7] appears, read: dose: 100.0 mg/kg/injection, schedule: Q04DX003 (ip), vehicle: saline with Tween-80.
Where [8] appears, read: dose: 200.0 mg/kg/injection, schedule: Q04DX003 (ip), vehicle: saline with Tween-80.
[9] abbreviates: dose: 400.0 mg/kg/injection, schedule: Q04DX003 (ip), vehicle: saline with Tween-80.
The mark [10] stands for this setting: dose: 12.5 mg/kg/injection, schedule: Q01DX009 (ip), vehicle: saline with Tween-80.

With `N#Cc1c(F)c(F)c(C#N)c(F)c1F`, the T/C is, setting by setting: (dose: 1.25 mg/kg/injection, schedule: Q01DX009 (ip), vehicle: Klucel (hydroxypropylcellulose) (HPC)) 100 % of control; (dose: 2.5 mg/kg/injection, schedule: Q01DX009 (ip), vehicle: Klucel (hydroxypropylcellulose) (HPC)) 104 % of control; (dose: 5.0 mg/kg/injection, schedule: Q01DX009 (ip), vehicle: Klucel (hydroxypropylcellulose) (HPC)) 108 % of control; (dose: 10.0 mg/kg/injection, schedule: Q01DX009 (ip), vehicle: Klucel (hydroxypropylcellulose) (HPC)) 104 % of control.

`CCOC(=O)CCC(NC(=O)c1ccc(N(C)S(=O)(=O)c2ccc(C)cc2)c(F)c1)C(=O)OCC` (stereo not given): the T/C (dose: 75.0 mg/kg/injection, schedule: Q04DX003 (ip), vehicle: saline) is 95 % of control; the T/C (dose: 150.0 mg/kg/injection, schedule: Q04DX003 (ip), vehicle: saline) was 108 % of control; the T/C (dose: 300.0 mg/kg/injection, schedule: Q04DX003 (ip), vehicle: saline) was 100 % of control.

For `C=CC(=O)c1c(O)cc(O)c2c1C(C)C(=O)O2` (stereo not given), where the note is “dose: 75.0 mg/kg/injection, schedule: Q01DX009 (ip), vehicle: Klucel (hydroxypropylcellulose) (HPC)”, the T/C is 113 % of control.

Consider `C=C1C(C)C2C(Cc3ccccc3)NC(=O)C23C(OC(C)=O)C=CC(C)(O)C(=O)C(C)C/C=C/C3C1O` (stereo not given), for which the T/C runs as follows: (dose: 0.62 mg/kg/injection, schedule: Q01DX009 (ip), vehicle: saline with Tween-80) 104 % of control; (dose: 1.25 mg/kg/injection, schedule: Q01DX009 (ip), vehicle: saline with Tween-80) 110 % of control; (dose: 1.6 mg/kg/injection, schedule: Q01DX009 (ip), vehicle: saline) 157 % of control; (dose: 2.5 mg/kg/injection, schedule: Q01DX009 (ip), vehicle: saline) 172 % of control.

With `C[N+]1(C2CCC3CCC2C3O)CCOCC1` (stereo not given), the T/C was 91 % of control and 92 % of control (dose: 12.5 mg/kg/injection, schedule: Q01DX009 (ip), vehicle: saline); 100 % of control (dose: 25.0 mg/kg/injection, schedule: Q01DX009 (ip), vehicle: saline); 91 % of control and 92 % of control (dose: 50.0 mg/kg/injection, schedule: Q01DX009 (ip), vehicle: saline); 100 % of control and 90 % of control (dose: 100.0 mg/kg/injection, schedule: Q04DX003 (ip), vehicle: saline); 90 % of control (dose: 200.0 mg/kg/injection, schedule: Q04DX003 (ip), vehicle: saline).

As for `Cc1ccc(CC(N)c2nn[nH]n2)cc1` (stereo not given), the T/C runs as follows: under setting [1], 97 % of control; under setting [2], 105 % of control; under setting [3], 100 % of control.

As to `CCC(=O)OC(C)COc1ccc(C(C)(C)C)cc1` (stereo not given), the T/C was 110 % of control under setting [3], 110 % of control under setting [4] and 124 % of control under setting [5].

As to `O=S(=O)(O)O.[Ga]`, the T/C reads like this: (dose: 8.25 mg/kg/injection, schedule: Q01DX009 (ip), vehicle: saline sonified) 100 % of control; under setting [6], 90 % of control; under setting [7], 95 % of control; (dose: 134.0 mg/kg/injection, schedule: Q04DX003 (ip), vehicle: saline with Tween-80) 92 % of control; under setting [8], 123 % of control; (dose: 300.0 mg/kg/injection, schedule: Q04DX003 (ip), vehicle: saline with Tween-80) 96 % of control.

As for `CNC(=O)N/N=C/c1ccccc1`, the T/C (dose: 75.0 mg/kg/injection, schedule: Q01DX009 (ip), vehicle: saline with Tween-80) was 101 % of control; the T/C (dose: 150.0 mg/kg/injection, schedule: Q01DX009 (ip), vehicle: saline with Tween-80) is 97 % of control; the T/C (dose: 300.0 mg/kg/injection, schedule: Q01DX009 (ip), vehicle: saline with Tween-80) was 92 % of control.

As for `CCC1(C)CCC2=C(CCC3C(C)(C(=O)O)CCCC23C)C1` (stereo not given), the T/C under setting [2] is 100 % of control; the T/C under setting [6] is 96 % of control; the T/C under setting [3] was 87 % of control; the T/C under setting [4] is 100 % of control; the T/C under setting [8] is 96 % of control.

In the case of `COc1ccccc1Cl`, the T/C by setting is: under setting [3], 103 % of control; under setting [7], 116 % of control; under setting [4], 103 % of control; under setting [8], 104 % of control; under setting [5], 96 % of control; under setting [9], 108 % of control.

For `COc1ccc(CNCCNCc2ccc(OC)cc2)cc1`, the T/C was 98 % of control (dose: 12.5 mg/kg/injection, schedule: Q01DX009 (ip), vehicle: water); 100 % of control (dose: 25.0 mg/kg/injection, schedule: Q01DX009 (ip), vehicle: water); 95 % of control (dose: 25.0 mg/kg/injection, schedule: Q04DX003 (ip), vehicle: water); 115 % of control (dose: 50.0 mg/kg/injection, schedule: Q01DX009 (ip), vehicle: water); 95 % of control (dose: 50.0 mg/kg/injection, schedule: Q04DX003 (ip), vehicle: water); 92 % of control and 107 % of control (dose: 100.0 mg/kg/injection, schedule: Q01DX009 (ip), vehicle: water). Further, under “dose: 100.0 mg/kg/injection, schedule: Q04DX003 (ip), vehicle: water”, the T/C was 100 % of control and 109 % of control.

On to `COc1ccccc1C(c1ccccc1OC)N(C)C(C)(C)CO`, for which the T/C was 100 % of control (dose: 6.25 mg/kg/injection, schedule: Q01DX009 (ip), vehicle: saline with Tween-80); 91 % of control under setting [10]; 91 % of control under setting [1].

With `Nc1[nH]nc2nccnc12`, the T/C by setting is: under setting [3], 108 % of control; under setting [7], 100 % of control; under setting [4], 100 % of control; under setting [8], 104 % of control; under setting [5], 100 % of control; under setting [9], 109 % of control.

On to `COc1cc([C@@H]2c3cc4c(cc3[C@H](SC(=N)N)[C@H]3COC(=O)[C@H]23)OCO4)cc(OC)c1OC`, for which the T/C by setting is: (dose: 1.4 mg/kg/injection, schedule: Q01DX010 (ip), vehicle: carboxymethylcellulose (CMC)) 105 % of control; (dose: 2.8 mg/kg/injection, schedule: Q01DX010 (ip), vehicle: carboxymethylcellulose (CMC)) 100 % of control; (dose: 5.6 mg/kg/injection, schedule: Q01DX010 (ip), vehicle: carboxymethylcellulose (CMC)) 110 % of control; (dose: 18.0 mg/kg/injection, schedule: Q01DX009 (ip), vehicle: Klucel (hydroxypropylcellulose) (HPC)) 152 % of control; (dose: 27.0 mg/kg/injection, schedule: Q01DX009 (ip), vehicle: Klucel (hydroxypropylcellulose) (HPC)) 171 % of control.

Turning to `Fc1nc2nc(C(F)(F)F)[nH]c2nc1F`, the T/C runs as follows: (dose: 10.0 mg/kg/injection, schedule: Q01DX009 (ip), vehicle: saline with Tween-80) 104 % of control; (dose: 20.0 mg/kg/injection, schedule: Q01DX009 (ip), vehicle: saline with Tween-80) 121 % of control; (dose: 25.0 mg/kg/injection, schedule: Q04DX003 (ip), vehicle: saline with Tween-80) 105 % of control; (dose: 40.0 mg/kg/injection, schedule: Q01DX009 (ip), vehicle: saline with Tween-80) 120 % of control; under setting [6], 99 % of control; (dose: 80.0 mg/kg/injection, schedule: Q01DX009 (ip), vehicle: saline with Tween-80) 112 % of control. Besides, the T/C reads like this: under setting [7], 90 % of control and 105 % of control; (dose: 160.0 mg/kg/injection, schedule: Q01DX009 (ip), vehicle: saline with Tween-80) 112 % of control.

In the case of `COc1ccc2c(c1)C(Cc1ccc(Oc3ccc(CC4c5cc(OC)ccc5CC[N+]4(C)C)cc3)cc1)[N+](C)(C)CC2` (stereo not given), the T/C is, setting by setting: (dose: 0.1 mg/kg/injection, schedule: Q04DX003 (ip), vehicle: saline) 104 % of control; (dose: 0.2 mg/kg/injection, schedule: Q04DX003 (ip), vehicle: saline) 100 % of control; (dose: 0.39 mg/kg/injection, schedule: Q04DX003 (ip), vehicle: saline with Tween-80) 93 % of control; (dose: 0.4 mg/kg/injection, schedule: Q04DX003 (ip), vehicle: saline) 96 % of control.

As to `CN(C)c1ccc(/C=C\c2ccnc3ccccc23)cc1Br`, the T/C runs as follows: under setting [10], 107 % of control; under setting [1], 94 % of control; under setting [2], 99 % of control; under setting [3], 89 % of control.
